In assay [1] the target is T1, GalNAc-T2 (Homo sapiens, UniProt Q10471).
T1 construct: made in house
Particulars: cited from earlier work. From the text:
Among other conclusions it was reported that the glycosylation ...

The target in assay [2] is T1, GalNAc-T2. The assay can be described thus: Time-lapse AFM of single GalNAc-T2 molecules with ligands. The note with it: GalNAc-T2 2.0 nM on mica, PBS pH 7.4, 20 °C. On the procedure:
AFM measurements were performed using a MultiMode 8 AFM system (Bruker). […] Additional details are in Supplementary Methods. […]
simulations were performed with the acceptor amino acid – UDPGalNAc distance and the RMSD of the Cα peptide carbon atoms as collective variables.
The values of the height and width of the Gaussian-like biasing potential were selected as 1.0 kcal·mol -1 and 0.25 Å, respectively. A temperature window of ΔT = 25000 K for the well-tempered algorithm was used together with a deposition time of 1 ps. The simulation was continued until the system completely explored the free energy landscape several times which, in terms of the simulation time, corresponds to approximately 100 ns for each metadynamics run.
Atomic Force Microscopy Imaging
In Tapping Mode image operation the cantilever driven by a piezoelectric actuator vibrates near its resonance frequency. Upon approaching the sample, the tip briefly touches the surface at the bottom of each swing, resulting in a decrease in oscillation amplitude. […]
AFM scanning requires the sample be immobilized on a nanoflat surface not to be swept away. […] The concentration of the protein incubated on the mica sheets was suitable to get isolated features that could be analyzed individually. […]
GalNAc-T2 presents a net positive charge at the working pH conditions due to its theoretical isoelectric point of 8.3. The immobilization of enzymes on mica was previously evaluated observing clearly they preserve the enzymatic activity5.
To determine how the ligands affect the conformational dynamics of GalNAc-T2, the enzyme was also incubated with ligands for 10 min under mild stirring at room temperature. […] AFM images were further analyzed by using the WSxM software6. […] At least 10 images of 10 different areas of 500 nm2 were analyzed for every sample and environment. Furthermore, each feature or associate was analyzed in detail with the zoom function of the WSxM program, performed without losing image information and or the discarding of artifacts. […]

For assay [3], the target named is T1, GalNAc-T2. The assay can be described thus: X-ray crystal structures of GalNAc-T2 complexes. For Rg of crystal complex: values in Å. The class given is binding. On the procedure: In all cases, crystals were grown by hanging drop vapour diffusion at 18 °C. […] The protein solution consisting of 3.5 mg ml^−1 of GalNAcT-2, 5 mM UDP, 5 mM MnCl2 and 6 mM MUC5AC-13 in the same buffer described above was mixed with the precipitant solution containing 1.6 M ammonium sulfate, 100 mM sodium chloride and 100 mM HEPES (pH 7). The crystals were cryoprotected in saturated lithium sulfate and frozen in a nitrogen gas stream cooled to 100 K.
All data were processed and scaled using the XDS package[34] and CCP4 software. The crystal structures were solved by molecular replacement with Phaser[35] and using the PDB entry 4D0T as the template. Initial phases were further improved by cycles of manual model building in Coot[36] and refinement with REFMAC5 (ref. [37]). The AUs of the tetragonal crystals contain 1 molecule of GalNAc-T2 (Fig. 1). Coordinates and structure factors have been deposited in the Worldwide Protein Data Bank (wwPDB, and see Table 1 for the pdb codes).

Structures are written as SMILES. Where a SMILES comes first, the peptide text is derived from it. The star is where a group is joined. αGalNAc = CC(=O)N[C@@H]1[C@@H](O)[C@@H](O)[C@@H](CO)O[C@@H]1*

T1 sequence (Q10471 75-571 limits assumed): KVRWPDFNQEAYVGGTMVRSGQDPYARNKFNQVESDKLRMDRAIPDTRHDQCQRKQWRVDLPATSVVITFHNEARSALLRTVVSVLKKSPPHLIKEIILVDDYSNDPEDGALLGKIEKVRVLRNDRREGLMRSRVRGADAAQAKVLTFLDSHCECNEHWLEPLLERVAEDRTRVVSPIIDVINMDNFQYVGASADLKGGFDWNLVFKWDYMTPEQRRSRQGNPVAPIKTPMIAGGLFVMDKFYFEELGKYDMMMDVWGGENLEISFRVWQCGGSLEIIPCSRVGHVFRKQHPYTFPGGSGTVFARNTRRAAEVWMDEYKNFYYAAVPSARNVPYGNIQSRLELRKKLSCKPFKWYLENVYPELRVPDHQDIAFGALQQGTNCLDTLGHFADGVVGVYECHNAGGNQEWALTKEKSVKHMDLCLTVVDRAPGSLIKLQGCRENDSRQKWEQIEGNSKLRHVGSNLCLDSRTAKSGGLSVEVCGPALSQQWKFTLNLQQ

`CC(=O)NCC(=O)N[C@H](C(=O)N[C@H](C(=O)N1CCC[C@H]1C(=O)N[C@@H](CO)C(=O)N1CCC[C@H]1C(=O)N[C@H](C(=O)N1CCC[C@H]1C(=O)N[C@H](C(=O)N[C@H](C(=O)N[C@@H](CO)C(=O)N[C@H](C(=O)N[C@H](C(=O)N[C@@H](CO)C(=O)N[C@@H](C)C(N)=O)[C@@H](C)O[C@H]1O[C@H](CO)[C@H](O)[C@H](O)[C@H]1NC(C)=O)[C@@H](C)O)[C@@H](C)O)[C@@H](C)O)C(C)C)[C@@H](C)O)[C@@H](C)O` [MUC5AC-13] (Ac-GTTPSPVPTTSTT(αGalNAc)SA-NH2; N-terminus assumed): the optimal glycosylation site result in assay [1] (prior glycosylated site Thr13, ref 1 (supplement)) is “optimally 10 residues N-terminal (Thr3)”. Further, in assay [1] (ref 1 (supplement)), the “glycosylation of further sites Ser5 and Thr9” value is “not in an efficient manner”. Also, the “conformational states of GalNAc-T2 observed” value in assay [2] (peptide alone or in combination with UDP/Mn+2, peptides 10.0 nM) was “three different conformational states are present”. In assay [3] (GalNAc-T2-UDP-MUC5AC-13 complex), the “Rg of crystal complex” value worked out at 26.41 Å. The “form of GalNAc-T2 bound in crystal” value in assay [3] (co-crystallization with UDP and Mn+2, flexible loop conformation) was “bound to an active form of GalNAc-T2”.

For the compound `O=c1ccn([C@@H]2O[C@H](COP(=O)(O)OP(=O)(O)O)[C@@H](O)[C@H]2O)c(=O)[nH]1` [UDP, uridine diphosphate, reference compound], the “conformational states of GalNAc-T2 observed” value in assay [2] (in the presence of Mn+2, UDP, UDP-GalNAc and MnCl2 20.0 nM) is “either the very compact or the compact structure”.

Values taken from publication PMC4432651, “Dynamic interplay between catalytic and lectin domains of GalNAc-transferases modulates protein O-glycosylation” (Nature Communications, 2015).
